Each structure is given as a SMILES string.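 How tested: cells in 96-well plates exposed to compound for 48 hours at five concentrations. Here, GI50 denotes the concentration required for 50% inhibition of growth. The concentration for full growth arrest is given as TGI.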

These results are taken from PubChem BioAssay (NCI).

Assay in all cases: DTP human tumour cell line panel, 48 h
Test [1] deals with SK-MEL-5 melanoma.
Test [2] concerns SF-539 CNS.
Test [3] deals with SK-MEL-28 melanoma.
In test [4] the test system is OVCAR-4 ovarian.
For test [5], the system named is HL-60(TB) leukemia.
Test [6] relates to OVCAR-3 ovarian.
Test [7] deals with NCI-H460 lung.
Test [8] has as its system COLO 205 colon.
The subject of test [9] is KM12 colon.

As to `CC1CCC2(CC1)N=C1CCC(C)CC1C1(CCC(C)CC1)N2` (configuration not stated), the TGI in test [1], in [2], in test [3], in [4], in test [5] and in test [6] was over 100 µM in each case. In addition, the concentration for total growth inhibition (TGI) in [7], in test [8] and in test [9] was over 100 µM each time.

For the molecule `NCCCCNC1(c2cc3ccccc3s2)CCCCC1`, the TGI (commonly the concentration giving total growth inhibition) in test [1] turned out to be 3.63 µM; in test [2], 4.59 µM; in test [3] it was 3.81 µM; in [4], 20.5 µM; in test [5] it was 12.6 µM; in test [6], 9.28 µM. Moreover, the TGI in test [7] is 7.42 µM; in [8], 3.5 µM; in test [9], 10.7 µM.

Regarding `CC(=O)NC1=C(C)C(=O)c2c(nc3n2CC[C@H]3OC(C)=O)C1=O`, the total growth inhibition concentration (TGI) in [1] came to 8.07 µM; in test [2], 4.38 µM; in [3], 5.16 µM; in test [4], 3 µM; in test [5], 8.97 µM; in test [6], 1.4 µM. The TGI in [7] was determined as 9.11 µM; in test [8] it was 3.36 µM; in test [9] it was 3.52 µM.

Turning to `C[C@H](CCC1=NCCN1)[C@H]1CC[C@H]2[C@@H]3CC[C@@H]4C[C@H](O)CC[C@]4(C)[C@H]3C[C@H](O)[C@]12C`, the TGI turned out to be 24.5 µM in test [1]; 29.5 µM in [2]; 34.6 µM in test [3]; 33.6 µM in [4]; 36 µM in test [5]; 24.5 µM in test [6]. Also, the concentration for total growth inhibition (TGI) amounted to 31.2 µM in test [7], 23.8 µM in test [8] and 24.1 µM in [9].

For the molecule `Nc1nc2cc(CNc3ccc(C(=O)NC(CCC(=O)O)C(=O)O)cc3)ccc2nc1-c1ccccc1` (configuration not stated), the TGI in test [1], in test [2], in test [3], in [4], in [5] and in test [6] was over 10 µM each time. The TGI in [7], in test [8] and in [9] was over 10 µM in each case.

As for `CC[C@@H]1CC[C@@H]2[C@H](CC[C@]3(C)[C@@H](OS(=O)(=O)c4ccc(C)cc4)CC[C@@H]23)[C@H]1CO`, the TGI in [1], in test [2], in test [3], in test [4], in test [5] and in test [6] was over 100 µM in each case. Besides, the TGI in test [7], in test [8] and in [9] was over 100 µM throughout.

Consider `O=C1O[C@]2(c3ccccc3)C(c3ccccc3)=C[C@]2(C(=O)c2ccccc2)C1=O`, for which the TGI in test [1] is over 100 µM; in test [2], 50.8 µM; in test [3] it was over 100 µM; in [4] it was over 100 µM; in test [5] it was 22.4 µM; in test [6], over 100 µM. Besides, the TGI was 71.6 µM in [7], over 100 µM in test [8] and over 100 µM in test [9].

Regarding `O=C(O)/C=C/C(=O)O`, the TGI in [1], in test [2], in test [3], in [4], in [5] and in test [6] was over 100 µM each time. Besides, the TGI in [7], in test [8] and in test [9] was over 100 µM throughout.

In the case of `NC(=O)NCCCC(NC(=O)OCCCCCn1ccc(=O)[nH]c1=O)C(=O)O` (configuration not stated), the TGI in test [2], in test [3], in [4], in test [5], in test [6] and in test [7] was over 100 µM each time. Further, the TGI in test [8] and in test [9] was over 100 µM each time.

Consider `CCOC(=O)C(=Cn1c(=S)[nH]c2ccc([N+](=O)[O-])cc21)C(=O)OCC`, for which the TGI in test [1], in test [2], in test [3], in test [4], in test [5] and in test [6] was over 100 µM each time. The TGI in test [7], in [8] and in test [9] was over 100 µM in each case.

Take `O=C(Nc1cccc(-n2ccc3c(NC(=O)c4ccccc4)nccc32)c1)c1cc(N2CCOCC2)cc(C(F)(F)F)c1`: the GI50 (as a rule, the concentration giving 50% growth inhibition) in test [1] is 0.0671 µM; in test [2], 0.0675 µM; in [3] it was 0.085 µM; in test [4] it was 0.175 µM; in [5] it was 0.514 µM; in test [6] it was 0.0259 µM. Also, the GI50 in test [7] is 0.0374 µM; in test [8], 0.157 µM; in test [9] it was 0.0628 µM. Also, the TGI in [1] was 0.249 µM; in test [2], 0.94 µM; in test [3], over 100 µM; in test [4] it was over 100 µM; in test [5] it was over 100 µM; in [6], 0.0605 µM. Besides, the TGI was over 36.9 µM in [7] and 0.472 µM in [8].

`O=[N+]([O-])c1ccc(Cl)cc1C=NC12CC3CC(CC(C3)C1)C2`: the TGI in [1] was over 100 µM; in [2], over 86.7 µM; in test [3], over 100 µM; in [4], over 100 µM; in [5], 15.6 µM; in test [6] it was over 100 µM. For the same molecule, the values for the TGI in test [7], in test [8] and in test [9] were over 100 µM, 97.5 µM and over 91 µM, respectively.

Consider `CC(=O)NC1=CC(=O)c2cc(C)cc(O)c2C1=O`, for which the TGI in test [1] stood at 2.65 µM; in test [2], 14.8 µM; in test [3], 1.54 µM; in test [4], 20.4 µM; in test [5] it was 5.24 µM; in test [6], 8.37 µM. In addition, the TGI in [7] stood at 36.1 µM; in test [8] it was 13.3 µM; in test [9], 33.4 µM.

For `CCOC(=O)C(NCc1cccc(C(F)(F)F)c1)(NC(=O)c1ccccc1)C(F)(F)F` (configuration not stated), the TGI was over 100 µM in test [1]; over 100 µM in test [2]; 63.6 µM in test [3]; over 100 µM in test [4]; over 100 µM in [5]; 82 µM in [6]. Further, the TGI is 29.9 µM in [8] and over 100 µM in [9].
